Data as given in patent US20250281564A1, “DYSREGULATION OF NEUROPROTEASOMES BY APOE ISOFORMS DRIVES ENDOGENOUS TAU AGGREGATION” (The Trustees of Columbia University in the City of New York, priority 2022, published 2025).
Residues, ends and D or L forms follow the SMILES beside them. *: point of attachment. Cbz = O=C(OCc1ccccc1)*

How the values were obtained:
endogenous mouse Tau = assay: Sarkosyl fractionation and Tau immunoblot, WT primary cortical neurons; type: cell-based; details: 1 μM, 12 hours, vs DMSO
Source text: (§1) (FIG. 5A) Effect of neuroproteasome-specific inhibitor iBEp on Tau aggregation in primary neurons. […] Quantification of soluble and insoluble murine Tau (mTau) intensities normalized to soluble GAPDH. […] (FIG. 5B) Effect of neuroproteasome inhibition on aggregation of human Tau (hTau). […] (FIG. 5C) Generation of reversible neuroproteasome inhibitors to test effects of neuroproteasome inhibition. (Top) Structure of Sulfo-MG132 (SulfoMG). […] (FIG. 5D) Effect of reversible neuroproteasome inhibition using SulfoMG on Tau aggregation. […] Quantification of soluble and insoluble Tau intensities were normalized to soluble GAPDH. Data (right) are mean±SEM normalized respective to DMSO controls. […] (FIG. 5E) Testing iBEp permeability in vivo. […] 72 hours post injection, hippocampi were isolated and subjected to membrane fractionation without detergent. […] (FIG. 5F) Effect of neuroproteasome inhibition on Tau aggregation in vivo.

human Tau = assay: Sarkosyl fractionation and Tau immunoblot, hTau-KI primary cortical neurons; type: cell-based; details: 1 μM, 12 hours, vs DMSO
Source text: as §1

p62, LC3bI/II, Ulk1 = assay: Autophagy marker immunoblot in primary neurons; type: cell-based, mouse; details: 12 hours, DIV14 WT primary cortical neurons
Source text: (FIG. 4A) (Top) Structure of azide-PEG24-epoxomicin handle to enable rapid conjugation of linkers to global proteasome inhibitor epoxomicin using Click chemistry. (Bottom) Structure of Neuroproteasome-specific inhibitor impermeant Biotin-PEG24-Epoxomicin (iBEp). (FIG. 4B) Assessing permeability of iBEp in primary neurons. […] Cytosolic (Cyto) and membrane (Mem) fractions were immunoblotted using indicated antibodies. (FIG. 4C) Proteasome catalytic activity of membrane (Mem) and cytosolic (Cyto) fractions of neurons treated with iBEp. […] Proteasome catalytic activity was assessed by monitoring degradation of Suc-LLVY-AMC; proteasome-dependent cleavage of the substrate increases AMC fluorescence. N=3 biological replicates. **** p<0.0001 by One-Way ANOVA. (FIG. 4D) Primary neurons treated with iBEp probed for autophagy markers. […] Lysates were immunoblotted using indicated antibodies against common autophagy markers. Quantification of p62, LC3b, and Ulk1 intensities normalized to Actin. […] (FIG. 4E) Schematic to analyze changes in sarkosyl-soluble and insoluble proteomes in response to neuroproteasome inhibition. […] Sarkosyl-soluble and insoluble fractions were labeled with Tandem Mass Tags (TMTpro) for quantitative mass spectrometry. (FIG. 4F) Differential enrichment of proteins in the sarkosyl-soluble fraction of neurons treated with iBEp versus DMSO was analyzed and plotted as log 2-fold change vs-log 10 (P-value). Green dots represent proteins enriched in the iBEp treatment compared to DMSO treatment. (FIG. 4G) Graphs plotting the log 2-fold change of select Neuroproteasome substrates enriched in the sarkosyl-soluble fraction from MS analysis in (FIG. 4F) compared to UPS substrates and autophagy markers ** p<0.01 (adjusted p-value after multiple corrections). (FIG. 4H) Differential enrichment of proteins in the sarkosyl-insoluble fraction of neurons treated with iBEp versus DMSO was analyzed and plotted as log 2-fold change vs −log 10 (P-value). Green dots represent proteins enriched in the iBEp treatment compared to DMSO treatment. (FIG. 4I) (Left) Identification of proteins which are exclusively enriched in the insoluble fraction with no corresponding change in the soluble fraction (red). Plk2 represents the only protein which is enriched in the soluble fraction with no corresponding change in the insoluble fraction (green). Proteins plotted as differences in log 2 fold changes. (Right) Graphs plotting the log 2 fold changes of insoluble Tau (top) and soluble Tau (bottom) enriched in neurons treated with iBEp vs DMSO. ** p<0.01 (adjusted p-value after multiple corrections).
FIG. 5A-5G: Neuroproteasomes are differentially regulated by ApoE isoforms to determine formation of endogenous sarkosyl-insoluble Tau inclusions. […]

Compound	sarkosyl-insoluble Tau, WT neurons (endogenous mouse Tau)	sarkosyl-insoluble Tau, hTau-KI neurons (human Tau)	LC3bI/II (p62, LC3bI/II, Ulk1)	p62 levels (p62, LC3bI/II, Ulk1)
CC[C@H](C)[C@H](NC(=O)[C@H]([C@@H](C)CC)N(C)C(C)=O)C(=O)N[C@H](C(=O)N[C@@H](CC(C)C)C(=O)[C@@]1(C)CO1)[C@@H](C)O [Epoxomicin, reference compound]	no change in sarkosyl-insoluble Tau	no change in sarkosyl-insoluble Tau	little to no change in LC3bI/II	strong induction of p62
CC(C)C[C@@H](C=O)NC(=O)[C@H](CC(C)C)NC(=O)[C@H](CC(C)C)NC(=O)OCc1ccccc1 [MG132, reference compound] (Cbz-Leu-Leu-Leu-aldehyde)	–	does not affect the sarkosyl-insoluble accumulation of Tau	–	–
